From patent US20160221932A1, “Methods and Uses of Melatonin Ligands” (priority 2013, published 2016)
Entries after “also recorded” stand apart in the source; their conditions may differ.

Key:
[1] = system: rats with L5-L6 spinal nerves ligation; assay: L5-L6 spinal nerves ligature model, von Frey paw withdrawal threshold; format: in vivo, rat; details: for AUC of the antiallodynic effect across 8 h: mean±SEM, VEH 36.24±1.8 g
Method: (§1) Animals: Wistar rats (150-250 g, Charles-River Saint-Constant, Quebec, Canada) were used for the formalin test, hot plate test and L5-L6 spinal nerves ligature model. The animals were housed at constant room temperature and humidity under a 12 h light/dark cycle (lights on at 7 AM). Food and water were available ad libitum.
L5-L6 Spinal Nerves Ligature: Nerve injury results in abnormal pain perception, known as neuropathic pain, which is associated with hyperalgesia (high pain sensibility) and allodynia (pain perception induced by innocuous stimuli) (Campbell and Meyer, 2006). The rat model for neuropathic pain develop by Kim and Chung (Kim and Chung, 1992) was used in which the L5 and L6 spinal nerves were ligated and two weeks later allodynia was measured by paw stimulation with von Frey filaments. Briefly, animals were anesthetized with a mixture of ketamine/xylazine/acepromazine (i.p.). Following surgical preparation and exposure of the dorsal vertebral column, the left L5 and L6 spinal nerves were exposed and tightly ligated with 3.0 chromic catgut suture distal to the dorsal root ganglion. For sham-operated rats, the nerves were exposed but not ligated. The incisions were closed using 3.0 vicryl sutures, and the animals were allowed to recover for 13 days.
On day 14 after surgery, rats were singularly placed in a test chamber (clear plastic, wire mesh-bottomed cage) and allowed to acclimatize for 30-40 min. Von Frey filaments (Stoelting, Wood Dale, Ill., USA) were used to measure the 50% paw withdrawal threshold using the up and down method by (Chaplan et al., 1994). […] Lifting of the paw indicated a positive response and prompted the use of the next weaker filament, whereas absence of paw withdrawal after 5 s indicated a negative response and prompted the next filament of increasing weight. This paradigm continued for four more measurements after the initial change of the behavioral response, or until five consecutive negative (assigned a score of 15 g), or four consecutive positive (assigned a score of 0.25 g) responses. The resulting score were used to calculate the 50% response threshold by using the formula proposed by Dixon et al., 1980.
Allodynia was considered to be present when paw withdrawal thresholds were less than 4 g. (Chaplan et al., 1994). All nerve-ligated rats were verified to be allodynic, responding to a stimulus of less than 4 g. Rats without allodynia were excluded. Following the determination of the basal response, tactile allodynia was assessed at 0.5, 1, 2, 3, 4, 5, 6, 7 and 8 h post-administration for each treatment below described.
[…] […] Another group of rats received only the vehicle (VEH) consisting on a 70% DMSO/saline solution (0.9% NaCl). All treatments were administered in a single subcutaneous injection with a volume of 1 ml. Rats were tested at 0 h (basal withdrawal threshold) and 0.5, 1, 2, 3, 4, 5, 6, 7 and 8 h post-treatment administration.
(§2) Statistical Analysis: Data analysis was done using SigmaPlot 12 (Systat Software, Inc.). Two-way ANOVA for repeated measures was used to analyze data from L5-L6 models using treatments (between) and testing time (within) as factors. One-way ANOVA was used to analyze AUC in the L5-L6 spinal nerves ligation model. One-way ANOVA was used for formalin and hot-plate tests. Post-hoc analyses were performed using Bonferroni t-test comparisons or Student-Newman-Keuls (SNK) test. All data are expressed as mean±Standard Error of the Mean (SEM). P<0.05 was considered significant.

Wistar rats [2] = assay: formalin test; format: in vivo, rat; details: 30 min prior to test
Method: as §1
Formalin Test: Antinociception was assessed using the formalin test (Dubuisson and Dennis, 1977). Rats were placed in open Plexiglas observation chambers for 60 min to allow them to acclimatize to their surroundings; then they were removed for formalin administration. Rats were gently restrained while the dorsal surface of the right hindpaw was injected with […] of 1% formalin (37% formaldehyde solution further diluted in saline solution) with a 30-gauge needle. The animals were returned to the chambers and nociceptive behavior was observed immediately after formalin injection. Mirrors were placed in each chamber to enable unhindered observation. Licking/biting behavior directed to the formalin injected paw was scored in 5 min intervals considering number and duration of the licking. Cumulative behavior for the total duration of the test as well as the first (0-10 min) and second phase (20-50 min) was then analyzed (Sufka et al., 1998).The initial acute phase (0-10 min) was followed by a relatively short quiescent period, which was then followed by a prolonged tonic response (15-60 min). The first phase is considered to be the result of direct stimulation of nociceptors, whereas inflammation process contributes to phase 2 activity (Hunskaar and Hole, 1987). At the end of the experiment the rats were sacrificed in a CO2 chamber.
as §2

Wistar rats [3] = assay: hot plate test; format: in vivo, rat
Method: Animals: Wistar rats (150-250 g, Charles-River Saint-Constant, Quebec, Canada) were used for the formalin test, hot plate test and L5-L6 spinal nerves ligature model. The animals were housed at constant room temperature and humidity under a 12 h light/dark cycle (lights on at 7 AM). Food and water were available ad libitum. Hot plate test: The hot-plate test was performed by using an electronically controlled hot-plate (Ugo Basile, Italy). The initial temperature was 38° C. A near linear increase in temperature (3° C. per min) was obtained by turning the heating adjustment to maximum. The temperature at which the fast hindpaw lick occurred was recorded as the nociceptive end-point. If no hindpaw lick was observed, the test was terminated at 52° C., and this cut-off value was used in the analysis. The plate was wiped with a wet cloth, and a fan located behind the plate allowed rapid cooling so that testing could be conducted every 7.5 min. Statistical Analysis: Data analysis was done using SigmaPlot 12 (Systat Software, Inc.). Two-way ANOVA for repeated measures was used to analyze data from L5-L6 models using treatments (between) and testing time (within) as factors. One-way ANOVA was used to analyze AUC in the L5-L6 spinal nerves ligation model. One-way ANOVA was used for formalin and hot-plate tests. Post-hoc analyses were performed using Bonferroni t-test comparisons or Student-Newman-Keuls (SNK) test. All data are expressed as mean±Standard Error of the Mean (SEM). P<0.05 was considered significant.

human MT1 receptor = target: T1, human MT1 receptor (Homo sapiens, UniProt P48039); assay: 2-[125I]iodomelatonin competition binding, human MT1 in CHO cells; details: human MT1 stably expressed in CHO cells; calculated from IC50 by Cheng and Prusoff; read-out: MT1 pKi (converted)
T1 construct: expressed in transfected cells
T1 sequence (P48039 whole entry): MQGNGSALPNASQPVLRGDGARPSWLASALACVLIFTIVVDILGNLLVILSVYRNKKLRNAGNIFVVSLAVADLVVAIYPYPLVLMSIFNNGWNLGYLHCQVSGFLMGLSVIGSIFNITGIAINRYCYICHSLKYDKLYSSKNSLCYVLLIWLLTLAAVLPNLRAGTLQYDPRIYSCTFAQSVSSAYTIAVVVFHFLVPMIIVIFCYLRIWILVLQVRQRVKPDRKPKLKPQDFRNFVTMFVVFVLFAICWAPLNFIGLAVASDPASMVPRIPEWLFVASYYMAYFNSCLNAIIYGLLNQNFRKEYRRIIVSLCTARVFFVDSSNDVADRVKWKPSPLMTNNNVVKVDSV

human-cloned MT1 = target: T2, human-cloned MT1 (Homo sapiens, UniProt P48039); assay: impedance assay in CHO cells expressing human-cloned MT1 (functional activity); format: cell-based; for MT1 Activity: key: A = ago0nist; PA = partial agonist; ANT = antagonits
T2 construct: expressed in transfected cells
T2 sequence (P48039 whole entry): as above

human MT2 receptor = target: T3, human MT2 receptor (Homo sapiens, UniProt P49286); assay: 2-[125I]iodomelatonin competition binding, human MT2 in CHO cells; details: human MT2 stably expressed in CHO cells; calculated from IC50 by Cheng and Prusoff; read-out: MT2 pKi (converted)
T3 construct: expressed in transfected cells
T3 sequence (P49286 1-362): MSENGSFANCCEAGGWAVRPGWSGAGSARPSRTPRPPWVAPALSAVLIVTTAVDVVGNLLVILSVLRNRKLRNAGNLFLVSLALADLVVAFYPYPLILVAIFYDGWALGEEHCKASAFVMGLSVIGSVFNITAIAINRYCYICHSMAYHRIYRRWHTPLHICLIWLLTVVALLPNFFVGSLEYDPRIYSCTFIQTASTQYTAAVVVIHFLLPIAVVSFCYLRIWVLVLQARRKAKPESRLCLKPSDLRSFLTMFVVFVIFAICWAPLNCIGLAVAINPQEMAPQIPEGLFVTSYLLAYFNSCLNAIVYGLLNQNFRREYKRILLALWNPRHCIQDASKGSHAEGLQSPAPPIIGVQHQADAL

[4] = target: T4, human-cloned MT2 receptors (Homo sapiens, UniProt P49286); assay: cAMP assay in CHO cells expressing human-cloned MT2 (functional activity); format: cell-based; for MT2 Activity: key: A = ago0nist; PA = partial agonist; ANT = antagonits
T4 construct: expressed in transfected cells
T4 sequence (P49286 1-362): T3 sequence (P49286 1-362)

SNI rats = assay: spared nerve injury (SNI) model, dynamic plantar aesthesiometer; format: in vivo, rat; details: 150 mg/kg s.c.
Method: Spared nerve injury (SNI) of the sciatic nerve and measurement of allodynia with the dynamic plantar aesthesiometer. SNI was performed according to the method of Decosterd and Woolf (2000). Rats were anaesthetized with sodium pentobarbital (50 mg/kg i.p.). The sciatic nerve was exposed at mid-thigh level […] to the trifurcation and freed of connective tissue; the three peripheral branches (sural, common peroneal, and tibial nerves) of the sciatic nerve were exposed without stretching nerve structures. Both tibial and common peroneal nerves were ligated and transected together. The sham procedure consisted of the same surgery without ligation and transection of the nerves. Fourteen days after SNI, mechanical allodynia was measured using the dynamic plantar aesthesiometer (Ugo Basile, Varese, Italy). Each rat was placed and allowed to move freely in one of the two compartments of the enclosure positioned on a metal grid surface. A mechanical stimulus was delivered to the plantar surface of the rat's hind paw through the metal grid by a steel filament (Von Frey-type), connected to a movable touch-stimulator unit exerting an increasing force of 3 g per second. The force inducing paw withdrawal was recorded to the nearest 0.1 g. Nociceptive responses for mechanical sensitivity (mechanical withdrawal threshold) were measured in grams before and after vehicle or drug administration by an experimenter blind to the treatments. A single trial at each time point was performed on the ipsilateral hind paw to SNI surgery for each rat. Nociceptive responses for mechanical sensitivity were expressed as mean±SEM (g). Groups of 6-7 rats per treatment were used, with each animal being used for one treatment only.
as §2

[5] = 3 mg/kg s.c., listed as Ketoprofen
[6] = 3 mg/kg s.c., listed as ketoprofen

NCC1(CC(=O)O)CCCCC1 [GBP, gabapentin, reference compound]
maximum withdrawal threshold increase ([1]; 100 mg/kg s.c., at 4 h): 420 % from basal
AUC of the antiallodynic effect across 8 h ([1]; 100 mg/kg s.c.): 249.33 ± 22.1 g

CC(C(=O)O)c1cccc(C(=O)c2ccccc2)c1 (centres unmarked) [KET, Ketoprofen, reference compound]
licking time vs vehicle, first phase (Wistar rats [2]; 3 mg/kg s.c.): decreased the licking time
licking time vs vehicle, second phase (Wistar rats [2]; 3 mg/kg s.c.): decreased the licking time
licking time vs vehicle, total time (Wistar rats [2]; 3 mg/kg s.c.): decreased the licking time
licking time vs vehicle, first phase (Wistar rats [2]; [5]): decrease in the licking time
licking time vs vehicle, second phase (Wistar rats [2]; [5]): decrease of the licking time
licking time vs vehicle, total time (Wistar rats [2]; [5]): decrease in the licking time
licking time vs vehicle, first phase (Wistar rats [2]; [6]): decrease in the licking time
licking time vs vehicle, second phase (Wistar rats [2]; [6]): decrease of the licking time
licking time vs vehicle, total time (Wistar rats [2]; [6]): decrease in the licking time

CC(=O)Nc1ccc(O)cc1 [ACE, Acetaminophen, reference compound]
withdrawal temperature vs vehicle (Wistar rats [3]; 200 mg/kg s.c., 1 hour post treatment): increased the withdrawal temperature
withdrawal temperature vs vehicle (Wistar rats [3]; 200 mg/kg s.c., 1 hour post treatment, listed as acetaminophen): increase of withdrawal temperature
withdrawal temperature vs vehicle (Wistar rats [3]; 200 mg/kg s.c., 4 hours post treatment): increased the withdrawal temperature
withdrawal temperature vs vehicle (Wistar rats [3]; 200 mg/kg s.c., 4 hours post treatment, listed as acetaminophen): increase the withdrawal temperature

CC(=O)NCCN(c1ccccc1)c1cccc(OCCCCc2ccccc2)c1 [5i, N-{2-[(3-pheny/butoxyphenyl)-phenyl-amino]ethyl}acetamide]
Ki (human MT1 receptor): 35.5 nM
activity for the MLT receptor subtype MT1 (in words) (human-cloned MT1; CHO cells): antagonist activity
MT1 Activity (human-cloned MT1; intrinsic activity, human MT1 in CHO cells): ANT
Ki (human MT2 receptor): 331 nM
activity for the MLT receptor subtype MT2 (in words) ([4]; CHO cells): antagonist activity
MT2 Activity ([4]; intrinsic activity, human MT2 in CHO cells): ANT

COc1ccc2[nH]cc(CCNC(C)=O)c2c1 [MLT, N-acetyl-5-methoxytryptamine, reference compound]
withdrawal temperature vs vehicle (Wistar rats [3]; 150 mg/kg s.c., 30 min post treatment): significant increase of the withdrawal temperature
withdrawal temperature vs vehicle (Wistar rats [3]; 150 mg/kg s.c., 1 hour post treatment): increase of withdrawal temperature; also recorded: increased the withdrawal temperature
withdrawal temperature vs vehicle (Wistar rats [3]; 150 mg/kg s.c., 4 hours post treatment): increase the withdrawal temperature
effect on mechanical allodynia compared with GBP 100 mg/kg (SNI rats): lower magnitude than that produced by GBP
maximum increase in withdrawal threshold ([1]; 150 mg/kg s.c., at 2 h post-treatment): 335 % from baseline
AUC of the antiallodynic effect across 8 h ([1]; 150 mg/kg s.c.): 131.75±7.9
licking time vs vehicle, first phase (Wistar rats [2]; 150 mg/kg s.c.): decreased the licking time
licking time vs vehicle, second phase (Wistar rats [2]; 150 mg/kg s.c.): decrease of the licking time; also recorded: decreased the licking time
licking time vs vehicle, total time (Wistar rats [2]; 150 mg/kg s.c.): decrease in the licking time; also recorded: decreased the licking time
licking time vs vehicle, first phase (Wistar rats [2]; 150 mg/kg s.c., listed as Melatonin): decrease in the licking time

CCC(=O)NC1Cc2ccccc2C(c2ccccc2)C1 (centres unmarked) [4P-PDOT, reference compound]
effect of pre-treatment with MT2 antagonist on antiallodynic effect of 5p ([1]; 4P-PDOT 10 mg/kg 10 min before 5p 20 mg/kg, 8 h of testing): blocked the effects of 5p
